Measurements published in PMC10648349, “Aromatic Diboronic Acids as Effective KPC/AmpC Inhibitors” (Molecules, 2023).
Values after ≈ are worked out from the molar mass of the structure shown.

What was measured:
[1] = tested on: E. coli 77 CMY-2-positive; assay: combination disc test CDT-AmpC; assay type: cell-based; details: Escherichia coli, read-out: Diameter of inhibition zone, CAZ-30 disc with agent; for zone of inhibition at 300 µg/disc: agent 0.3 mg per disc
[2] = tested on: B. subtilis ATCC 6633; assay: direct antimicrobial activity (disc-diffusion); assay type: cell-based; details: Bacillus subtilis, ATCC6633; 0.4 mg per disc, 9 mm disc (linezolid 0.03 mg, 6 mm disc); - no zone; read-out: Diameter of inhibition zone
How it was run: (§1)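 Reference drugs were nitrofurantoin for Gram-negative rods, linezolid for Gram-positive bacteria and fluconazole for yeasts. Test agents were dissolved in DMSO and assessed by disc diffusion (0.4 mg/disc), MIC, and MBC or MFC per EUCAST/CLSI.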

[3] = tested on: K. pneumoniae ATCC BAA 1705 KPC-2-positive; assay: combination disc test CDT-KPC; assay type: cell-based; details: Klebsiella pneumoniae, BAA1705, read-out: Diameter of inhibition zone, MEM-10 disc with agent; for zone of inhibition at 300 µg/disc: agent 0.3 mg per disc
[4] = tested on: C. krusei ATCC 6258; assay: antifungal activity (disc-diffusion, MIC, MFC); assay type: cell-based, Candida krusei; details: Pichia kudriavzevii, ATCC6258; for MIC: fluconazole by Etest
How it was run: as §1

[5] = tested on: P. aeruginosa MUW 700 cAmpC-positive; assay: combination disc test CDT-AmpC; assay type: cell-based; details: Pseudomonas aeruginosa, read-out: Diameter of inhibition zone, CAZ-30 disc with agent; for zone of inhibition at 300 µg/disc: agent 0.3 mg per disc
[6] = tested on: C. tropicalis ATCC 750; assay: antifungal activity (disc-diffusion, MIC, MFC); assay type: cell-based; details: Candida tropicalis, ATCC750; fluconazole by Etest
How it was run: as §1

[7] = tested on: S. cerevisiae ATCC 9763; assay: antifungal activity (disc-diffusion, MIC, MFC); assay type: cell-based; details: Saccharomyces cerevisiae, ATCC9763; for MIC: fluconazole by Etest
How it was run: as §1

[8] = tested on: C. tropicalis IBA 171; assay: antifungal activity (disc-diffusion, MIC, MFC); assay type: cell-based; details: Candida tropicalis, IBA171; fluconazole by Etest
How it was run: as §1

[9] = tested on: C. albicans ATCC 90028; assay: antifungal activity (disc-diffusion, MIC, MFC); assay type: cell-based; details: Candida albicans, ATCC90028; fluconazole by Etest
How it was run: as §1

[10] = MTT-based viability assay; assay type: cell-based; details: human, MRC-5 human fibroblasts, 72 h, read-out: Viability of MRC-5 cells (% of viable cells ± SD)
How it was run: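 Percent viable cells relative to control, measured in triplicate by MTT read-out at 570 nm. Cells: MRC-5 human fibroblasts cultured at 37 °C, 5% CO2 in MEME plus 10% FBS.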

[11] = tested on: E. coli 77 CMY-2-positive; assay: checkerboard microdilution, antibiotic plus tested agent; assay type: cell-based, Escherichia coli
How it was run: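 Read-out is the antibiotic MIC with agent present, plus FICI = combined/alone MIC ratios summed for both partners. Meropenem pairs served for carbapenemase strains and ceftazidime pairs for the AmpC strain. Agent or PBA was tested at 4–16 mg/L.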

[12] = tested on: C. parapsilosis ATCC 22019; assay: antifungal activity (disc-diffusion, MIC, MFC); assay type: cell-based, Candida parapsilosis; details: Lodderomyces parapsilosis, ATCC22019; for MIC: fluconazole by Etest
How it was run: as §1

[13] = tested on: C. guilliermondii IBA 155; assay: antifungal activity (disc-diffusion, MIC, MFC); assay type: cell-based, Candida guilliermondii; details: Meyerozyma guilliermondii, IBA155; for MIC: fluconazole by Etest
How it was run: as §1

[14] = tested on: S. aureus ATCC 6538P; assay: direct antimicrobial activity (disc-diffusion, MIC, MBC); assay type: cell-based; details: Staphylococcus aureus, ATCC6538P; for zone of inhibition at 0.4 mg/disc: 0.4 mg per disc, 9 mm disc (linezolid 0.03 mg, 6 mm disc), - no zone, read-out: Diameter of inhibition zone
How it was run: as §1

[15] = tested on: E. faecalis ATCC 29212; assay: as above; assay type: cell-based; details: Enterococcus faecalis, ATCC29212
How it was run: as §1

[16] = tested on: S. epidermidis ATCC 12228; assay: as above; assay type: cell-based; details: Staphylococcus epidermidis, ATCC12228; for zone of inhibition at 0.4 mg/disc: 0.4 mg per disc, 9 mm disc (linezolid 0.03 mg, 6 mm disc), - no zone, read-out: Diameter of inhibition zone
How it was run: as §1

[17] = tested on: S. aureus ATCC 43300 MRSA; assay: as above; assay type: cell-based; details: Staphylococcus aureus
How it was run: as §1

[18] = tested on: E. faecium ATCC 6057; assay: as above; assay type: cell-based; details: Enterococcus faecium, ATCC6057
How it was run: as §1

[19] = 0.4 mg per disc, 9 mm disc (fluconazole 0.025 mg, 6 mm disc), - no zone, read-out: Diameter of inhibition zone

MIC [4] [µg/mL] | MIC [6] [µg/mL] | MIC [7] [µg/mL] | MIC [8] [µg/mL] | MIC [9] [µg/mL] | MIC [12] [µg/mL] | MIC [13] [µg/mL] | MIC [14] [µg/mL] | MIC [15] [µg/mL] | MIC [16] [µg/mL] | MIC [17] [µg/mL] | MIC [18] [µg/mL] | SMILES | zone of inhibition at 300 µg/disc [1] [mm] | zone of inhibition at 0.4 mg/disc [2] [mm] | viability at 72 h, 12.5 mg/L [10] [%] | viability at 72 h, 25 mg/L [10] [%] | viability at 72 h, 50 mg/L [10] [%] | Average FICI with ceftazidime [11] | The lowest FICI with ceftazidime [11] | zone of inhibition at 0.4 mg/disc [16] [mm] | also measured
> 400 | > 400 | > 400 | > 400 | > 400 | > 400 | > 400 | 25 (≈ 119 µM) | 200 (≈ 954 µM) | 200 (≈ 954 µM) | 200 (≈ 954 µM) | 200 (≈ 954 µM) | OB(O)c1ccc(B(O)O)c(B(O)O)c1 [4b, benzene-1,2,4-triboronic] | 21 | 18 | 114 ± 1.8 | 106.4 ± 0.1 | 97.3 ± 13.6 | 0.43 | 0.27 | 20 | zone of inhibition at 300 µg/disc [3]: 14 mm; zone of inhibition at 300 µg/disc [5]: 21 mm; zone of inhibition at 0.4 mg/disc [14]: 20 mm
> 400 | > 400 | > 400 | > 400 | 400 (≈ 2330 µM) | > 400 | > 400 | 100 (≈ 582 µM) | 100 (≈ 582 µM) | 400 (≈ 2330 µM) | 400 (≈ 2330 µM) | > 400 | OB(O)c1ccsc1B(O)O [5a, thiophene-2,3-diboronic acid] | 20 | 15 | 88.6 ± 9.2 | 87.1 ± 1.6 | 79.2 ± 5.1 | 0.43 | 0.27 | 13 | zone of inhibition at 300 µg/disc [3]: 15 mm; zone of inhibition at 300 µg/disc [5]: 22 mm
100 (≈ 544 µM) | > 400 | 25 (≈ 136 µM) | 400 (≈ 2180 µM) | > 400 | 100 (≈ 544 µM) | 400 (≈ 2180 µM) | 25 (≈ 136 µM) | 200 (≈ 1090 µM) | 100 (≈ 544 µM) | 100 (≈ 544 µM) | 200 (≈ 1090 µM) | OB(O)c1ccc(B(O)O)c(F)c1 [1b] | – | 23 | 140 ± 6.7 | 140 ± 8.3 | 117 ± 1.3 | 0.17 | 0.10 | 17 | zone of inhibition at 100 µg/disc ([1]; agent 0.1 mg per disc): 20 mm; zone of inhibition at 100 µg/disc ([3]; agent 0.1 mg per disc): 11 mm; zone of inhibition at 0.4 mg/disc [4, 19]: 22 mm; zone of inhibition at 100 µg/disc ([5]; agent 0.1 mg per disc): 20 mm; zone of inhibition at 0.4 mg/disc [7, 19]: 14 mm; zone of inhibition at 0.4 mg/disc [12, 19]: 12 mm; zone of inhibition at 0.4 mg/disc [13, 19]: 24 mm; zone of inhibition at 0.4 mg/disc [14]: 14 mm; zone of inhibition at 0.4 mg/disc ([17]; 0.4 mg per disc, 9 mm disc (linezolid 0.03 mg, 6 mm disc), - no zone, read-out: Diameter of inhibition zone): 13 mm
